From patent US20150148306A1, “COMPOSITIONS AND METHODS FOR THE TREATMENT OF INFLAMMATION” (priority 2012, published 2015)

Test: physchem
Assay type: physicochemical
Details: water, thermodynamic from solid
Description: Measurement of the water solubility of the test compounds is accomplished by using methods well known to those skilled in the art. Specifically, to a weighed amount of the test compound of the example compound Formula I (1-1) distilled water was added in small proportions until a clear solution was obtained. The total volume of the solution is measured. The water solubility is calculated by dividing the weight of the salt, in milligrams (mg), by the volume of the solution, in mL. […] The compound of Formula I (1-1) is therefore, at least 372 times more soluble in water than EPA itself. This is a clear indication of an unexpectedly high degree of bioavailability of the compositions of the invention. Highly water soluble medicinal preparations, when administered orally, result in efficient absorption from the gastrointestinal tract in to systemic circulation. Furthermore, water soluble preparations are especially suitable for parenteral administration.

SMILES: CC/C=C\C/C=C\C/C=C\C/C=C\C/C=C\CCCC(=O)O [EPA, Eicosapentaenoic Acid]
- solubility: < 200 µg/mL
